According to PubChem BioAssay AID1963436 (Molecular Pharmacology Branch, DTP, NCI, 2024):

Test system: OVCAR-5 complex spheroid (HUVEC/MSC), viability % T/C
Assay: Anticancer human tumor OVCAR-5 cell line growth inhibition [Asc];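 note: spheroids exposed to agents for 7 days before readout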;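 for viability, T/C: 100% = DMSO vehicle-treated wells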
Settings: for IC50: curve of first compound; for viability, T/C: stronger effect = lower value
Summary of the method: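 Tumor cells were grown as multicellular spheroids with stromal HUVEC and mesenchymal stem cells and treated singly or in combination. Concentrations fell in half-log steps from the clinical Cmax, or from 10 microM where none was known.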

NC(=O)C(=Cn1cnc(-c2cc(C(F)(F)F)cc(C(F)(F)F)c2)n1)c1cncnc1 + Cc1c(S(C)(=O)=O)c(-c2cc(F)cc(N3CCN(c4ccc(NS(=O)(=O)c5ccc(NC(CCN6CCC(C(=O)OCCCP(=O)(O)O)CC6)CSc6ccccc6)c(S(=O)(=O)C(F)(F)F)c5)cc4)CC3)c2)c(-c2ccc(Cl)cc2)n1C(C)C was tested, and the IC50 (second compound 0.1 µM) was 199 nM, the IC50 (second compound 0.316 µM) was 137 nM and the IC50 (second compound 1 µM) was 106 nM. It also gave an IC50 (second compound 3.16 µM) of 63.9 nM, an IC50 (second compound 10 µM) of 66.8 nM and a viability, T/C (second compound 0.1 µM, first compound 0.000949 µM) of 106%. For the same compound, the viability, T/C (second compound 0.1 µM, first compound 0.003 µM) was 99.1%, the viability, T/C (second compound 0.1 µM, first compound 0.00949 µM) was 91.7% and the viability, T/C (second compound 0.1 µM, first compound 0.03 µM) was 79.6%. For the same compound, the viability, T/C (second compound 0.1 µM, first compound 0.0949 µM) was 82.2%, the viability, T/C (second compound 0.1 µM, first compound 0.3 µM) was 34.8% and the viability, T/C (second compound 0.316 µM, first compound 0.000949 µM) was 100%. For the same compound, the viability, T/C (second compound 0.316 µM, first compound 0.003 µM) was 96.2%, the viability, T/C (second compound 0.316 µM, first compound 0.00949 µM) was 93.7% and the viability, T/C (second compound 0.316 µM, first compound 0.03 µM) was 77.6%. The viability, T/C (second compound 0.316 µM, first compound 0.0949 µM) was 60.3%, the viability, T/C (second compound 0.316 µM, first compound 0.3 µM) was 29.3% and the viability, T/C (second compound 1 µM, first compound 0.000949 µM) was 98.3%. The viability, T/C (second compound 1 µM, first compound 0.003 µM) was 103%, the viability, T/C (second compound 1 µM, first compound 0.00949 µM) was 79.7% and the viability, T/C (second compound 1 µM, first compound 0.03 µM) was 79%. It also gave a viability, T/C (second compound 1 µM, first compound 0.0949 µM) of 53.1%, a viability, T/C (second compound 1 µM, first compound 0.3 µM) of 19.1% and a viability, T/C (second compound 3.16 µM, first compound 0.000949 µM) of 97.1%. For the same compound, the viability, T/C (second compound 3.16 µM, first compound 0.003 µM) was 98.5%, the viability, T/C (second compound 3.16 µM, first compound 0.00949 µM) was 91.8% and the viability, T/C (second compound 3.16 µM, first compound 0.03 µM) was 66.3%. The viability, T/C (second compound 3.16 µM, first compound 0.0949 µM) was 41.9%, the viability, T/C (second compound 3.16 µM, first compound 0.3 µM) was 17% and the viability, T/C (second compound 10 µM, first compound 0.000949 µM) was 119%. For the same compound, the viability, T/C (second compound 10 µM, first compound 0.003 µM) was 121%, the viability, T/C (second compound 10 µM, first compound 0.00949 µM) was 111% and the viability, T/C (second compound 10 µM, first compound 0.03 µM) was 85.2%. For the same compound, the viability, T/C (second compound 10 µM, first compound 0.0949 µM) was 34.5% and the viability, T/C (second compound 10 µM, first compound 0.3 µM) was 8.64%.

CNC(C)C(=O)NC1CN(S(=O)(=O)c2cccc(S(=O)(=O)N3CCC4CCC(C(=O)NC(c5ccccc5)c5ccccc5)N4C(=O)C(NC(=O)C(C)NC)C3)c2)CCC2CCC(C(=O)NC(c3ccccc3)c3ccccc3)N2C1=O (stereo not given) + CCN1C(C(=O)NC23CCC(C(=O)O)(CC2)CC3)C(c2cccc(Cl)c2F)C2(C(=O)Nc3cc(Cl)ccc32)C12CCCCC2 was tested, and the IC50 (second compound 0.03 µM) was over 1000 nM, the IC50 (second compound 0.0949 µM) was over 1000 nM and the IC50 (second compound 0.3 µM) was over 1000 nM. For the same compound, the IC50 (second compound 0.949 µM) was over 1000 nM, the IC50 (second compound 3 µM) was over 1000 nM and the viability, T/C (second compound 0.03 µM, first compound 0.00316 µM) was 97.3%. The viability, T/C (second compound 0.03 µM, first compound 0.01 µM) was 107%, the viability, T/C (second compound 0.03 µM, first compound 0.0316 µM) was 86.2% and the viability, T/C (second compound 0.03 µM, first compound 0.1 µM) was 84.7%. The viability, T/C (second compound 0.03 µM, first compound 0.316 µM) was 94.4%, the viability, T/C (second compound 0.03 µM, first compound 1 µM) was 75% and the viability, T/C (second compound 0.0949 µM, first compound 0.00316 µM) was 90.5%. For the same compound, the viability, T/C (second compound 0.0949 µM, first compound 0.01 µM) was 102%, the viability, T/C (second compound 0.0949 µM, first compound 0.0316 µM) was 80.7% and the viability, T/C (second compound 0.0949 µM, first compound 0.1 µM) was 77.1%. The viability, T/C (second compound 0.0949 µM, first compound 0.316 µM) was 78.8%, the viability, T/C (second compound 0.0949 µM, first compound 1 µM) was 78.3% and the viability, T/C (second compound 0.3 µM, first compound 0.00316 µM) was 102%. The viability, T/C (second compound 0.3 µM, first compound 0.01 µM) was 94%, the viability, T/C (second compound 0.3 µM, first compound 0.0316 µM) was 84.5% and the viability, T/C (second compound 0.3 µM, first compound 0.1 µM) was 74.7%. The viability, T/C (second compound 0.3 µM, first compound 0.316 µM) was 87.3%, the viability, T/C (second compound 0.3 µM, first compound 1 µM) was 95.3% and the viability, T/C (second compound 0.949 µM, first compound 0.00316 µM) was 109%. It also gave a viability, T/C (second compound 0.949 µM, first compound 0.01 µM) of 102%, a viability, T/C (second compound 0.949 µM, first compound 0.0316 µM) of 87.5% and a viability, T/C (second compound 0.949 µM, first compound 0.1 µM) of 70.2%. It also gave a viability, T/C (second compound 0.949 µM, first compound 0.316 µM) of 85.1%, a viability, T/C (second compound 0.949 µM, first compound 1 µM) of 95% and a viability, T/C (second compound 3 µM, first compound 0.00316 µM) of 102%. The viability, T/C (second compound 3 µM, first compound 0.01 µM) was 101%, the viability, T/C (second compound 3 µM, first compound 0.0316 µM) was 96.7% and the viability, T/C (second compound 3 µM, first compound 0.1 µM) was 79.9%. For the same compound, the viability, T/C (second compound 3 µM, first compound 0.316 µM) was 84.4% and the viability, T/C (second compound 3 µM, first compound 1 µM) was 90.8%.

Work on NC1CCC(NC2CC2c2ccccc2)CC1 (stereo not given) + CNC(C)C(=O)NC1CN(S(=O)(=O)c2cccc(S(=O)(=O)N3CCC4CCC(C(=O)NC(c5ccccc5)c5ccccc5)N4C(=O)C(NC(=O)C(C)NC)C3)c2)CCC2CCC(C(=O)NC(c3ccccc3)c3ccccc3)N2C1=O yielded an IC50 (second compound 0.01 µM) of over 100 nM, an IC50 (second compound 0.0316 µM) of over 100 nM and an IC50 (second compound 0.1 µM) of over 100 nM. The IC50 (second compound 0.316 µM) was over 100 nM, the IC50 (second compound 1 µM) was over 100 nM and the viability, T/C (second compound 0.01 µM, first compound 0.000316 µM) was 92.9%. For the same compound, the viability, T/C (second compound 0.01 µM, first compound 0.001 µM) was 89.8%, the viability, T/C (second compound 0.01 µM, first compound 0.00316 µM) was 80.8% and the viability, T/C (second compound 0.01 µM, first compound 0.01 µM) was 84.8%. It also gave a viability, T/C (second compound 0.01 µM, first compound 0.0316 µM) of 80.8%, a viability, T/C (second compound 0.01 µM, first compound 0.1 µM) of 79.9% and a viability, T/C (second compound 0.0316 µM, first compound 0.000316 µM) of 75.8%. For the same compound, the viability, T/C (second compound 0.0316 µM, first compound 0.001 µM) was 77.7%, the viability, T/C (second compound 0.0316 µM, first compound 0.00316 µM) was 75.6% and the viability, T/C (second compound 0.0316 µM, first compound 0.01 µM) was 71.5%. For the same compound, the viability, T/C (second compound 0.0316 µM, first compound 0.0316 µM) was 69.1%, the viability, T/C (second compound 0.0316 µM, first compound 0.1 µM) was 66.9% and the viability, T/C (second compound 0.1 µM, first compound 0.000316 µM) was 76.5%. For the same compound, the viability, T/C (second compound 0.1 µM, first compound 0.001 µM) was 70%, the viability, T/C (second compound 0.1 µM, first compound 0.00316 µM) was 75.5% and the viability, T/C (second compound 0.1 µM, first compound 0.01 µM) was 67.3%. For the same compound, the viability, T/C (second compound 0.1 µM, first compound 0.0316 µM) was 74.5%, the viability, T/C (second compound 0.1 µM, first compound 0.1 µM) was 71% and the viability, T/C (second compound 0.316 µM, first compound 0.000316 µM) was 66.1%. The viability, T/C (second compound 0.316 µM, first compound 0.001 µM) was 73%, the viability, T/C (second compound 0.316 µM, first compound 0.00316 µM) was 66.2% and the viability, T/C (second compound 0.316 µM, first compound 0.01 µM) was 70.4%. The viability, T/C (second compound 0.316 µM, first compound 0.0316 µM) was 75.1%, the viability, T/C (second compound 0.316 µM, first compound 0.1 µM) was 75.7% and the viability, T/C (second compound 1 µM, first compound 0.000316 µM) was 72.1%. It also gave a viability, T/C (second compound 1 µM, first compound 0.001 µM) of 74.1%, a viability, T/C (second compound 1 µM, first compound 0.00316 µM) of 70.5% and a viability, T/C (second compound 1 µM, first compound 0.01 µM) of 72.4%. For the same compound, the viability, T/C (second compound 1 µM, first compound 0.0316 µM) was 80.8% and the viability, T/C (second compound 1 µM, first compound 0.1 µM) was 78.1%.
